Data: ChEMBL document CHEMBL1201862, “PubChem BioAssay data set” (2004)
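Dose response: 5 concentrations. Exposure: 48 h. Format: 96-well plates. Endpoint: linear interpolation; highest concentration if not reached. The concentration for 50% growth inhibition is given as GI50.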 Calls of active or inactive are those of the source. Cut-off read from the data, not from the text of the source: active = GI50 up to about 1.1 µM and inactive = higher.

Key:
Test in all cases: inhibition of tumour cell growth, NCI panel, 48 h
786-0 = tested on: 786-0
A549 = tested on: A549
ACHN = tested on: ACHN
BT-549 = tested on: BT-549
CAKI-1 = tested on: CAKI-1
CCRF-CEM = tested on: CCRF-CEM
COLO 205 = tested on: COLO 205
DU-145 = tested on: DU-145
EKVX = tested on: EKVX
HCC 2998 = tested on: HCC 2998
HCT-116 = tested on: HCT-116
HCT-15 = tested on: HCT-15
HL-60 = tested on: HL-60
HOP-62 = tested on: HOP-62
HT-29 = tested on: HT-29
Hs-578T = tested on: Hs-578T
IGROV-1 = tested on: IGROV-1
K562 = tested on: K562
KM12 = tested on: KM12
LOX IMVI = tested on: LOX IMVI
M14 = tested on: M14
MCF7 = tested on: MCF7
MDA-MB-231 = tested on: MDA-MB-231
MDA-MB-435 = tested on: MDA-MB-435
MDA-N = tested on: MDA-N
MOLT-4 = tested on: MOLT-4
Malme-3M = tested on: Malme-3M
NCI-H226 = tested on: NCI-H226
NCI-H23 = tested on: NCI-H23
NCI-H460 = tested on: NCI-H460
NCI-H522 = tested on: NCI-H522
NCI/ADR-RES = tested on: NCI/ADR-RES
OVCAR-3 = tested on: OVCAR-3
OVCAR-4 = tested on: OVCAR-4
OVCAR-5 = tested on: OVCAR-5
OVCAR-8 = tested on: OVCAR-8
PC-3 = tested on: PC-3
RPMI-8226 = tested on: RPMI-8226
SF-268 = tested on: SF-268
SF-295 = tested on: SF-295
SF-539 = tested on: SF-539
SK-MEL-28 = tested on: SK-MEL-28
SK-MEL-2 = tested on: SK-MEL-2
SK-MEL-5 = tested on: SK-MEL-5
SK-OV-3 = tested on: SK-OV-3
SN12C = tested on: SN12C
SNB-19 = tested on: SNB-19
SNB-75 = tested on: SNB-75
SR = tested on: SR
SW-620 = tested on: SW-620
T47D = tested on: T47D
TK-10 = tested on: TK-10
U-251 = tested on: U-251
UACC-257 = tested on: UACC-257
UACC-62 = tested on: UACC-62
UO-31 = tested on: UO-31
A498 = tested on: A498
HOP-92 = tested on: HOP-92
RXF 393 = tested on: RXF 393

For `O=C(/C=C/c1ccc(F)c(F)c1)OCCc1ccccc1`, the GI50 (786-0) was > 100 µM (inactive), the GI50 (A549) was > 100 µM (inactive) and the GI50 (ACHN) was > 100 µM (inactive). The GI50 (BT-549) was > 100 µM (inactive), the GI50 (CAKI-1) was 67.1 µM (inactive) and the GI50 (CCRF-CEM) was 29.8 µM (inactive). For the same compound, the GI50 (COLO 205) was > 100 µM (inactive), the GI50 (DU-145) was > 100 µM (inactive) and the GI50 (EKVX) was > 100 µM (inactive). The GI50 (HCC 2998) was > 100 µM (inactive), the GI50 (HCT-116) was 74.5 µM (inactive) and the GI50 (HCT-15) was 58.5 µM. The GI50 (HL-60) was > 100 µM (inactive), the GI50 (HOP-62) was > 100 µM (inactive) and the GI50 (HT-29) was 34.5 µM (inactive). For the same compound, the GI50 (Hs-578T) was > 100 µM (inactive), the GI50 (IGROV-1) was > 100 µM (inactive) and the GI50 (K562) was 51.3 µM (inactive). The GI50 (KM12) was > 100 µM (inactive), the GI50 (LOX IMVI) was 89.9 µM (inactive) and the GI50 (M14) was > 100 µM (inactive). The GI50 (MCF7) was 81.8 µM (inactive), the GI50 (MDA-MB-231) was > 100 µM (inactive) and the GI50 (MDA-MB-435) was > 100 µM (inactive). For the same compound, the GI50 (MDA-N) was 73.5 µM (inactive), the GI50 (MOLT-4) was 18 µM (inactive) and the GI50 (Malme-3M) was > 100 µM (inactive). The GI50 (NCI-H226) was > 100 µM (inactive), the GI50 (NCI-H23) was 72.9 µM (inactive) and the GI50 (NCI-H460) was > 100 µM (inactive). For the same compound, the GI50 (NCI-H522) was 38.6 µM (inactive), the GI50 (NCI/ADR-RES) was > 100 µM (inactive) and the GI50 (OVCAR-3) was > 100 µM (inactive). For the same compound, the GI50 (OVCAR-4) was 91.8 µM (inactive), the GI50 (OVCAR-5) was > 100 µM (inactive) and the GI50 (OVCAR-8) was > 100 µM (inactive). The GI50 (PC-3) was > 100 µM (inactive), the GI50 (RPMI-8226) was 77.6 µM (inactive) and the GI50 (SF-268) was > 100 µM (inactive). The GI50 (SF-295) was > 100 µM (inactive), the GI50 (SF-539) was > 100 µM (inactive) and the GI50 (SK-MEL-28) was > 100 µM (inactive). The GI50 (SK-MEL-2) was > 100 µM (inactive), the GI50 (SK-MEL-5) was 38.5 µM (inactive) and the GI50 (SK-OV-3) was > 100 µM (inactive). For the same compound, the GI50 (SN12C) was > 100 µM (inactive), the GI50 (SNB-19) was > 100 µM (inactive) and the GI50 (SNB-75) was 84.5 µM (inactive). For the same compound, the GI50 (SR) was 90.6 µM (inactive), the GI50 (SW-620) was > 100 µM (inactive) and the GI50 (T47D) was 72.4 µM (inactive). For the same compound, the GI50 (TK-10) was > 100 µM (inactive), the GI50 (U-251) was > 100 µM (inactive) and the GI50 (UACC-257) was > 100 µM (inactive). The GI50 (UACC-62) was > 100 µM (inactive) and the GI50 (UO-31) was 90.4 µM (inactive).
`O=c1c2ccccc2sc2ccccc12` was tested, and the GI50 (786-0) was > 100 µM (inactive), the GI50 (A498) was > 100 µM (inactive) and the GI50 (A549) was > 100 µM (inactive). For the same compound, the GI50 (ACHN) was > 100 µM (inactive), the GI50 (BT-549) was > 100 µM (inactive) and the GI50 (CAKI-1) was > 100 µM (inactive). The GI50 (CCRF-CEM) was > 100 µM (inactive), the GI50 (COLO 205) was > 100 µM (inactive) and the GI50 (DU-145) was > 100 µM (inactive). For the same compound, the GI50 (EKVX) was > 100 µM (inactive), the GI50 (HCC 2998) was > 100 µM (inactive) and the GI50 (HCT-116) was > 100 µM (inactive). For the same compound, the GI50 (HCT-15) was greater than 100 µM, the GI50 (HL-60) was > 100 µM (inactive) and the GI50 (HOP-62) was > 100 µM (inactive). The GI50 (HOP-92) was > 100 µM (inactive), the GI50 (HT-29) was > 100 µM (inactive) and the GI50 (Hs-578T) was > 100 µM (inactive). For the same compound, the GI50 (IGROV-1) was > 100 µM (inactive), the GI50 (K562) was > 100 µM (inactive) and the GI50 (KM12) was > 100 µM (inactive). For the same compound, the GI50 (LOX IMVI) was > 100 µM (inactive), the GI50 (M14) was > 100 µM (inactive) and the GI50 (MCF7) was > 100 µM (inactive). For the same compound, the GI50 (MDA-MB-231) was > 100 µM (inactive), the GI50 (MDA-MB-435) was > 100 µM (inactive) and the GI50 (MDA-N) was > 100 µM (inactive). The GI50 (MOLT-4) was > 100 µM (inactive), the GI50 (Malme-3M) was > 100 µM (inactive) and the GI50 (NCI-H226) was > 100 µM (inactive). The GI50 (NCI-H23) was > 100 µM (inactive), the GI50 (NCI-H460) was > 100 µM (inactive) and the GI50 (NCI-H522) was > 100 µM (inactive). The GI50 (NCI/ADR-RES) was > 100 µM (inactive), the GI50 (OVCAR-3) was > 100 µM (inactive) and the GI50 (OVCAR-4) was > 100 µM (inactive). The GI50 (OVCAR-5) was > 100 µM (inactive), the GI50 (OVCAR-8) was > 100 µM (inactive) and the GI50 (PC-3) was > 100 µM (inactive). For the same compound, the GI50 (RPMI-8226) was > 100 µM (inactive), the GI50 (RXF 393) was > 100 µM (inactive) and the GI50 (SF-268) was > 100 µM (inactive). The GI50 (SF-295) was > 100 µM (inactive), the GI50 (SF-539) was > 100 µM (inactive) and the GI50 (SK-MEL-28) was > 100 µM (inactive). For the same compound, the GI50 (SK-MEL-2) was > 100 µM (inactive), the GI50 (SK-MEL-5) was > 100 µM (inactive) and the GI50 (SK-OV-3) was > 100 µM (inactive). For the same compound, the GI50 (SN12C) was > 100 µM (inactive), the GI50 (SNB-19) was > 100 µM (inactive) and the GI50 (SNB-75) was > 100 µM (inactive). The GI50 (SW-620) was > 100 µM (inactive), the GI50 (T47D) was > 100 µM (inactive) and the GI50 (TK-10) was > 100 µM (inactive). For the same compound, the GI50 (U-251) was 14.9 µM (inactive), the GI50 (UACC-257) was > 100 µM (inactive) and the GI50 (UACC-62) was > 100 µM (inactive). For the same compound, the GI50 (UO-31) was > 100 µM (inactive).
